The record followed here is US20250215012A1, “IKZF2 DEGRADERS AND USES THEREOF” (REGENTS OF THE UNIVERSITY OF MICHIGAN, priority 2022, published 2025).

Molecules are shown by their SMILES. Read-outs that look alike come from different tables or passages of the source.

For assay [1], the target named is GST-tagged wild-type human CRBN protein (Homo sapiens (Human), UniProt Q96SW2). Nature of the assay: Cereblon Binding Assay (Cisbio Cereblon Binding Kit, TR-FRET). The note with it: about 3 hours at room temperature. The method, then:
The binding to cereblon (CRBN) is determined using the Cereblon Binding Kit (Cisbio, #64BDCRBNPEG) following the manufacturer's instruction. Briefly, serially diluted compounds are incubated with GST-tagged wild-type human CRBN protein, XL665-labelled Thalidomide and Europium Cryptate labelled GST antibody.
The binding to cereblon (CRBN) was determined using the Cereblon Binding Kit (Cisbio, #64BDCRBNPEG) following the manufacturer's instruction. Briefly, serially diluted compounds were incubated with GST-tagged wild-type human CRBN protein, XL665-labelled Thalidomide and Europium Cryptate labelled GST antibody at room temperature for about 3 hours.

Assay [2] has as its target IKZF2 (Homo sapiens (Human), UniProt Q96SW2+Q9UKS7). Kind of assay: IKZF2 HiBiT Assay (Jurkat-IKZF2-HiBiT cell line). In kind it is cell-based. The note with it: for DC50: read-out: HiBit assay degradation analysis DC50; for Dmax: read-out: HiBit assay degradation analysis Dmax. The method in brief: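 IKZF2 degradation was assessed as HiBiT luminescence in Jurkat-IKZF2-HiBiT cells, using lytic detection after 24 h of compound treatment at 37 °C, 5% CO2.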

Setting [3] is: Jurkat-IKZF2-HiBiT cells, 24 hours.

IKZF2, sequence (Q9UKS7 whole entry): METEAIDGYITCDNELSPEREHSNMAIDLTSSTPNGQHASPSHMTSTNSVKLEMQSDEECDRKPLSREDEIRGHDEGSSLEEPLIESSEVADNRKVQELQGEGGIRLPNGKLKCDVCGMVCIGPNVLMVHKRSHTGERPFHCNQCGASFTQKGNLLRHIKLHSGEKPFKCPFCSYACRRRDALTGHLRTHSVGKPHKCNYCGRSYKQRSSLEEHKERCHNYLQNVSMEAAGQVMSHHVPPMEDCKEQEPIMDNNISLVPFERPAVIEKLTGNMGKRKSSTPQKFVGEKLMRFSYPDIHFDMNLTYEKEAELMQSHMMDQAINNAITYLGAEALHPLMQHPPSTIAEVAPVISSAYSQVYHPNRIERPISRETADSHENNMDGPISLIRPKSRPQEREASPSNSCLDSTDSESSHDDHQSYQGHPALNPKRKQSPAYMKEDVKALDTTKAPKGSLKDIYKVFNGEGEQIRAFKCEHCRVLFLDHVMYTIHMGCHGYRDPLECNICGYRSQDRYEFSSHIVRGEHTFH
IKZF2, sequence (Q96SW2 whole entry): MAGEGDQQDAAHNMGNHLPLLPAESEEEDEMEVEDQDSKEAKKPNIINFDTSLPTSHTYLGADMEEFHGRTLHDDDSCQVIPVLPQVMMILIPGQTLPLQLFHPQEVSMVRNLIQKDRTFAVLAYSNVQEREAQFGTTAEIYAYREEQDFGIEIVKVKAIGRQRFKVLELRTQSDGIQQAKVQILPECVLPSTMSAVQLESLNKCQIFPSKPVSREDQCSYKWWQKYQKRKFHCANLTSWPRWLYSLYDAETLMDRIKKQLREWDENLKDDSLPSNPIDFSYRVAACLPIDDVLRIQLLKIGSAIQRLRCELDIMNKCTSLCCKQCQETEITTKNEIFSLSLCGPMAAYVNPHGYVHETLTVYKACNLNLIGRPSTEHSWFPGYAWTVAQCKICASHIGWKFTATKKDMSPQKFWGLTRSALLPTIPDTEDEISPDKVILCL
IKZF2, sequence (Q16531 whole entry partner): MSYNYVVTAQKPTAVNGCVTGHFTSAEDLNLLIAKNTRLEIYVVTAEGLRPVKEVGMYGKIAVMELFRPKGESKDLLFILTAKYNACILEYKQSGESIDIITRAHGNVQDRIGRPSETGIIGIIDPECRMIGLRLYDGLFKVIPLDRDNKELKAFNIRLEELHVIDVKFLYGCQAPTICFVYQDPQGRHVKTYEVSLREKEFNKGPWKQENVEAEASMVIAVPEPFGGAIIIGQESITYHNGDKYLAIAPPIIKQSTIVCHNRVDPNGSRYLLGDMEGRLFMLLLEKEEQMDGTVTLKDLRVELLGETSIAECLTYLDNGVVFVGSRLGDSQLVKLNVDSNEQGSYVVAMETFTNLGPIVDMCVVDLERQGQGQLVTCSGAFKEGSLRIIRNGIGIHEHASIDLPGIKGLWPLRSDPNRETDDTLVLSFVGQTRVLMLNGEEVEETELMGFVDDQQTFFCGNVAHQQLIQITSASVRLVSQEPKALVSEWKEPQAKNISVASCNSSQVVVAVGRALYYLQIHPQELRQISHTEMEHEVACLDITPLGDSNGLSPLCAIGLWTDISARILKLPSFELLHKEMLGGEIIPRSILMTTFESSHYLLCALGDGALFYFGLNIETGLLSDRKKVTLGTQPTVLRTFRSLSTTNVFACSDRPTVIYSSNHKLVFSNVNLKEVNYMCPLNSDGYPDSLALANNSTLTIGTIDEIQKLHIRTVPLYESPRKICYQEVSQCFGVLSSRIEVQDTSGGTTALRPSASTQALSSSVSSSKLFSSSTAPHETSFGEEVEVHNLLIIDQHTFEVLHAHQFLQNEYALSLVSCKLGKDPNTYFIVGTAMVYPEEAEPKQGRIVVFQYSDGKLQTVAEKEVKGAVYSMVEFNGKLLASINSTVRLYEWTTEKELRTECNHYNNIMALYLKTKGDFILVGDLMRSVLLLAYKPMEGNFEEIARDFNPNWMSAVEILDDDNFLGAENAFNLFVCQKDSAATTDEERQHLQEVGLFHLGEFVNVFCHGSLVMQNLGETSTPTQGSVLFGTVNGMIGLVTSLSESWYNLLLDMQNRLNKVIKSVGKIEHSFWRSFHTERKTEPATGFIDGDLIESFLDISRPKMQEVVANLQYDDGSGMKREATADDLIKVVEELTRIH
GST-tagged wild-type human CRBN protein, sequence (Q96SW2 whole entry): as the sequence (Q96SW2 whole entry) above

In assay [1], `O=C1CCC(N2Cc3c(ccc4c3OCC43CCN(Cc4cccc(-c5cc[nH]n5)c4)CC3)C2=O)C(=O)N1` (stereo not drawn) [Compound A160, 3-(1′-(3-(1H-pyrazol-3-yl)benzyl)-6-oxo-6,8-dihydro-2H,7H-spiro[furo[2,3-e]isoindole-3,4′-piperidin]-7-yl)piperidine-2,6-dione] came in with an IC50 of 10 to 100 nM. In addition, in assay [2] (setting [3]), the half-maximal degradation concentration (DC50) was under 50 nM and the Dmax lay in the range of 60 to 80%.

As to `O=C1CCC(N2Cc3c(ccc4c3OCC43CCN(Cc4cccc(-c5ccncc5)c4)CC3)C2=O)C(=O)N1` (stereo not drawn) [Compound A133, 3-(6-oxo-1′-(3-(pyridin-4-yl)benzyl)-6,8-dihydro-2H,7H-spiro[furo[2,3-e]isoindole-3,4′-piperidin]-7-yl)piperidine-2,6-dione], the IC50 in assay [1] was 100 to 1000 nM. For the same molecule, in assay [2] (setting [3]), the DC50 is under 50 nM and the Dmax fell in the range of 60 to 80%.

Regarding `O=C1CCC(N2Cc3c(ccc4c3OCC43CCN(Cc4cccc(F)c4)CC3)C2=O)C(=O)N1` (stereo not drawn) [Compound A29, 3-(1′-(3-fluorobenzyl)-6-oxo-6,8-dihydro-2H,7H-spiro[furo[2,3-e]isoindole-3,4′-piperidin]-7-yl)piperidine-2,6-dione], the IC50 in assay [1] was over 1000 nM. Also, in assay [2] (setting [3]), the DC50 is over 500 nM and the Dmax lay within 40 to 60%.

In assay [1], `O=C1CCC(N2Cc3c(ccc4c3OCC43CCN(Cc4ccccc4)CC3)C2=O)C(=O)N1` (stereo not drawn) [Compound A8, 3-(1′-benzyl-6-oxo-6,8-dihydro-2H,7H-spiro[furo[2,3-e]isoindole-3,4′-piperidin]-7-yl)piperidine-2,6-dione] gave a concentration for half-maximal inhibition (IC50) of 100 to 1000 nM. Besides, in assay [2] (setting [3]), the DC50 was 200 to 500 nM and the Dmax lay in the range of 40 to 60%.

On to `Cc1cc(C)cc(CN2CCC3(CC2)COc2c3ccc3c2CN(C2CCC(=O)NC2=O)C3=O)c1` (stereo not drawn) [Compound A31, 3-(1′-(3,5-dimethylbenzyl)-6-oxo-6,8-dihydro-2H,7H-spiro[furo[2,3-e]isoindole-3,4′-piperidin]-7-yl)piperidine-2,6-dione], for which the IC50 in assay [1] was 100 to 1000 nM. Further, in assay [2] (setting [3]), the DC50 is 200 to 500 nM and the Dmax lay within 60 to 80%.

On to `CCc1ccc(CN2CCC3(CCOc4c3ccc3c4CN(C4CCC(=O)NC4=O)C3=O)CC2)cc1` (stereo not drawn) [Compound A11, 3-(1-(4-ethylbenzyl)-7′-oxo-2′,3′,7′,9′-tetrahydro-8′H-spiro[piperidine-4,4′-pyrano[2,3-e]isoindol]-8′-yl)piperidine-2,6-dione], for which, in assay [1], the IC50 lay in the range of 10 to 100 nM. In assay [2] (setting [3]), the DC50 was over 500 nM and the Dmax is 40 to 60%.

In assay [1], `O=C1CCC(N2Cc3c(ccc4c3OCC43CCN(Cc4ccc(F)c(F)c4)CC3)C2=O)C(=O)N1` (stereo not drawn) [Compound A5, 3-(1′-(3,4-difluorobenzyl)-6-oxo-6,8-dihydro-2H,7H-spiro[furo[2,3-e]isoindole-3,4′-piperidin]-7-yl)piperidine-2,6-dione] came in with an IC50 of 100 to 1000 nM. Further, in assay [2] (setting [3]), the DC50 was over 500 nM and the Dmax was under 40%.

With `Cn1cc(-c2cccc(CN3CCC4(CC3)COc3c4ccc4c3CN([C@H]3CCC(=O)NC3=O)C4=O)c2)cn1` [Compound A170, (S)-3-(1′-(3-(1-methyl-1H-pyrazol-4-yl)benzyl)-6-oxo-6,8-dihydro-2H,7H-spiro[furo[2,3-e]isoindole-3,4′-piperidin]-7-yl)piperidine-2,6-dione], the IC50 in assay [1] was 100 to 1000 nM. Besides, in assay [2] (setting [3]), the DC50 is under 50 nM and the Dmax was in the range of 60 to 80%.

As to `O=C1CCC(N2Cc3c(ccc4c3OCC43CCN(Cc4cccc5cn[nH]c45)CC3)C2=O)C(=O)N1` (stereo not drawn) [Compound A52, 3-(1′-((1H-indazol-7-yl)methyl)-6-oxo-6,8-dihydro-2H,7H-spiro[furo[2,3-e]isoindole-3,4′-piperidin]-7-yl)piperidine-2,6-dione], the concentration for half-maximal inhibition (IC50) in assay [1] lay within 10 to 100 nM. In assay [2] (setting [3]), the DC50 was under 50 nM and the Dmax lay within 60 to 80%.

`O=C1CCC(N2Cc3c(ccc4c3OCC43CCN(Cc4ccc5c(c4)NC(=O)C5)CC3)C2=O)C(=O)N1` (stereo not drawn) [Compound A131, 3-(6-oxo-1′-((2-oxoindolin-6-yl)methyl)-6,8-dihydro-2H,7H-spiro[furo[2,3-e]isoindole-3,4′-piperidin]-7-yl)piperidine-2,6-dione]: the IC50 in assay [1] lay within 100 to 1000 nM. In addition, in assay [2] (setting [3]), the DC50 lay within 50 to 200 nM and the Dmax was in the range of 60 to 80%.

With `O=C1CCC(N2Cc3c(ccc4c3OCC43CCNCC3)C2=O)C(=O)N1` (stereo not drawn) [Compound A1, 3-(6-oxo-6,8-dihydro-2H,7H-spiro[furo[2,3-e]isoindole-3,4′-piperidin]-7-yl)piperidine-2,6-dione], the concentration for half-maximal inhibition (IC50) in assay [1] is over 1000 nM. In addition, in assay [2] (setting [3]), the DC50 was over 500 nM. Besides, in assay [2], the Dmax was under 40%.

As for `Cc1ccc(CN2CCC3(CCOc4c3ccc3c4CN(C4CCC(=O)NC4=O)C3=O)CC2)cc1` (stereo not drawn) [Compound A12, 3-(1-(4-methylbenzyl)-7′-oxo-2′,3′,7′,9′-tetrahydro-8′H-spiro[piperidine-4,4′-pyrano[2,3-e]isoindol]-8′-yl)piperidine-2,6-dione], the IC50 in assay [1] lay in the range of 10 to 100 nM. In addition, in assay [2] (setting [3]), the DC50 was over 500 nM and the Dmax is under 40%.

As for `O=C1CCC(N2Cc3c(ccc4c3OCC43CCN(Cc4cccc(CO)c4)CC3)C2=O)C(=O)N1` (stereo not drawn) [Compound A98, 3-(1′-(3-(hydroxymethyl)benzyl)-6-oxo-6,8-dihydro-2H,7H-spiro[furo[2,3-e]isoindole-3,4′-piperidin]-7-yl)piperidine-2,6-dione], in assay [1], the IC50 was in the range of 100 to 1000 nM. Also, in assay [2] (setting [3]), the DC50 lay in the range of 50 to 200 nM and the Dmax is 60 to 80%.

For the molecule `O=C1CCC(N2Cc3c(ccc4c3OCC43CCN(Cc4ccc5c(c4)C(=O)NC5)CC3)C2=O)C(=O)N1` (stereo not drawn) [Compound A122, 3-(6-oxo-1′-((3-oxoisoindolin-5-yl)methyl)-6,8-dihydro-2H,7H-spiro[furo[2,3-e]isoindole-3,4′-piperidin]-7-yl)piperidine-2,6-dione], the IC50 in assay [1] was 100 to 1000 nM. Further, in assay [2] (setting [3]), the DC50 is 50 to 200 nM and the Dmax was in the range of 60 to 80%.

In the case of `O=C1CCC(N2Cc3c(ccc4c3OCC43CCN(Cc4cccc5ccccc45)CC3)C2=O)C(=O)N1` (stereo not drawn) [Compound A27, 3-(1′-(naphthalen-1-ylmethyl)-6-oxo-6,8-dihydro-2H,7H-spiro[furo[2,3-e]isoindole-3,4′-piperidin]-7-yl)piperidine-2,6-dione], the IC50 in assay [1] lay within 100 to 1000 nM. Also, in assay [2] (setting [3]), the DC50 was under 50 nM and the Dmax is over 80%.

Turning to `Cn1cc(-c2cccc(CN3CCC4(CC3)COc3c4ccc4c3CN(C3CCC(=O)NC3=O)C4=O)c2)cn1` (stereo not drawn) [Compound A105, 3-(1′-(3-(1-methyl-1H-pyrazol-4-yl)benzyl)-6-oxo-6,8-dihydro-2H,7H-spiro[furo[2,3-e]isoindole-3,4′-piperidin]-7-yl)piperidine-2,6-dione], the IC50 in assay [1] is 100 to 1000 nM. Further, in assay [2] (setting [3]), the 50% degradation concentration (DC50) was under 50 nM and the Dmax was 60 to 80%.
